The source of these data is US12427168B2, “Extracellular vesicle and use thereof in skin products” (EV CELL BIOTECH (GUANGZHOU) CO., LTD., priority 2020, dated 2025).

Series [1] has as its system mice. In words: Wound healing of 1 cm×1 cm full-thickness wound. In kind it is in vivo. Conditions: for effect on promotion of wound healing by IEVs: with IEVs, FIG. 15B.
Source text: A 1 cm×1 cm full-thickness wound was made in mice, and the effect of systemic injections of MSCs and IEVs on wound healing was examined.
Series [2] relates to skin mesenchymal stem cells. In words: Uptake of IEVs by skin mesenchymal stem cells, cell smear. The settings on record: FIG. 13D. In kind it is cell-based.
The test system of a further series is active-β-catenin. Briefly: Active-β-catenin intensity in the skin, immunofluorescence. In kind it is in vivo. Conditions: with IEVs, FIG. 13E.
The test system of series [3] is mice. In words: Hair regrowth with IEVs alone or combined with anti-aging substances. In kind it is in vivo. The settings on record: combined with IEVs, FIG. 12. On the procedure:
After systemic injection of PKH26-IEV in C57 mice, rapamycin (5 mg/kg), metformin (100 mg/kg), dadatinib (5 mg/kg) and resveratrol (10 mg/kg) were intraperitoneally injected for 7 days, respectively.

A further series has as its system Wnt signaling pathways. In words: Skin excretion of IEVs under Wnt agonist or inhibitor (Western Blot, immunofluorescence). It counts as in vivo. Conditions: Licl 10 mg/kg or XAV939 1 mg/kg intraperitoneally for 3 days, FIGS. 13A-B.

For `Oc1nc(-c2ccc(C(F)(F)F)cc2)nc2c1CSCC2` [XAV939], in the series with mice [1], the “effect on promotion of wound healing by IEVs” value is recorded as “significantly attenuated the promotion of wound healing by IEVs”. In addition, the “effect on uptake of IEVs by skin mesenchymal stem cells” value in series [2] is “affected”. In the series on active-β-catenin, the “effect on IEV-stimulated activation of Wnt signaling pathways in the skin” value is recorded as “attenuated this activation process”.

In the case of `Oc1ccc(C=Cc2cc(O)cc(O)c2)cc1` [resveratrol], in the series on mice [3], the “effect of the combination on hair regrowth promotion by IEVs” value is reported as “promoted the promotion effects of hair regrowth by IEVs”.

Regarding `CN(C)C(=N)N=C(N)N` [metformin], the “effect of the combination on hair regrowth promotion by IEVs” value in the series with mice [3] is “promoted the promotion effects of hair regrowth by IEVs”.

Consider `[Cl-].[Li+]` [Licl], for which the “IEVs accumulation in the wound site” value in the series on mice [1] (immunofluorescence, FIG. 15C) is listed as “significantly increased IEVs accumulation in the wound site”. Also, the “effect on promotion of wound healing by IEVs” value with mice [1] was “accelerated the promotion of wound healing by IEVs”. Also, the “effect on uptake of IEVs by skin mesenchymal stem cells” value in series [2] is “affected”. Further, the “effect on skin excretion of IEVs” value in the series with Wnt signaling pathways is “significant increase in skin excretion of IEVs”.
